Reference: patent US12590062B2, “PD-1/PD-L1 inhibitors” (Gilead Sciences, Inc., priority 2017, dated 2026)

Assays:
[1] = target: PD-1/PD-L1 (Homo sapiens, UniProt Q9NZQ7); experiment: PD-1/PD-L1 biochemical protein-protein interaction assay (ALPHA); assay type: binding; details: 0.3 nM His tagged PD-L1, 2.5 nM biotinylated Fc-PD-1, 60 minutes at 25° C., read-out: IC50 PD-L1-PD-1 Alpha IC50-mono PD-L1-fcP-D1
Procedure, shortened: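 Bead proximity read-out: compound-driven loss of ALPHA signal between anti-His acceptor and streptavidin donor beads (20 μg/mL acceptor). Proteins: 0.3 nM His-PD-L1, 2.5 nM biotin-Fc-PD-1, final. 60 min, 25° C, Hepes pH 7.4 buffer. IC50 via four-parameter dose-response fit.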

[2] = target: T1, interaction between the recombinant extracellular domain (ECD) of PD-1 and native cell-bound PD-L1 (Homo sapiens, UniProt Q9NZQ7); experiment: CHO/PD-L1 cell capture assay; assay type: cell-based; details: CHO cells overexpressing PD-L1, pre-incubated 1 hr with compound, captured on biotinylated Fc-PD-1 coated plates, 75 min at room temperature
T1 construct: expressed in transfected cells
Procedure: EC50-CHO/PD-L1-Capture Assay:
Compounds were tested in a cell capture assay to determine if they can specifically block the interaction between the recombinant extracellular domain (ECD) of PD-1 and native cell-bound PD-L1. Binding affinity of stable CHO cells overexpressing PD-L1 with its cognate recombinant ligand coated on plates was measured by counting the number of ‘captured’ cells. High-capacity streptavidin- coated plates were incubated with biotylated-Fc-PD-1 for 2 hours in PBS. Unbound ligand was washed out. CHO-PD-L1 cells (resuspended in PBS pH 7.4, 0.5 mM EDTA, and 2% bovine serum albumin) were pre-incubated for 1 hr with compound, dispensed into each PD-1 ECD coated well and then incubated for 75 min at room temperature. To stop the capture assay, a fixative/staining solution (final concentrations are 1.3% glutaraldehyde and 1.67 μM Draq5) was gently added to the cells and incubated for 2 hrs at room temperature. Unbound cells were then washed out and ‘captured’ cells were enumerated using a high-content microscopy system. EC50 values were calculated from the fit of the dose-response curves to a four-parameter equation. Representative data are shown below in Table 2.

[3] = target: T2, PD-1/PD-L1 interaction (Homo sapiens, UniProt Q9NZQ7); experiment: PD-1/PD-L1 NFAT reporter co-culture assay; assay type: cell-based; details: Jurkat PD-1 NFAT-luciferase cells co-cultured with aAPC-PD-L1 CHO cells, 6 hrs at 37° C.; read-out: EC50 NFAT Luciferase
T2 construct: expressed in transfected cells; host or cells: CHO cells (aAPC-PD-L1) co-cultured with Jurkat cells overexpressing PD-1 and an NFAT-luciferase reporter
Procedure, shortened: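 Jurkat cells overexpressing PD-1 with NFAT-driven luciferase were mixed with compound in RPMI 1640/2% FBS and seeded onto overnight-plated CHO aAPC-PD-L1 cells expressing surface anti-CD3 and PD-L1. Co-culture ran 6 h at 37 °C; luminescence read with ONE-Glo; EC50 from four-parameter fit.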

Chain of PD-1/PD-L1 (Q9NZQ7 19-238 limits assumed): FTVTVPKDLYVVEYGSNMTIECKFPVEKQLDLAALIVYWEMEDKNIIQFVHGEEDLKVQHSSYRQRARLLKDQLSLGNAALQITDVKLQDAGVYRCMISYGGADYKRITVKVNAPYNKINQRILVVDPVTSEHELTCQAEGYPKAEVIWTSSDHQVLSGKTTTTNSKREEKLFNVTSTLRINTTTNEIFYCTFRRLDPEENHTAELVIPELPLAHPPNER
T1 sequence (Q9NZQ7 19-290): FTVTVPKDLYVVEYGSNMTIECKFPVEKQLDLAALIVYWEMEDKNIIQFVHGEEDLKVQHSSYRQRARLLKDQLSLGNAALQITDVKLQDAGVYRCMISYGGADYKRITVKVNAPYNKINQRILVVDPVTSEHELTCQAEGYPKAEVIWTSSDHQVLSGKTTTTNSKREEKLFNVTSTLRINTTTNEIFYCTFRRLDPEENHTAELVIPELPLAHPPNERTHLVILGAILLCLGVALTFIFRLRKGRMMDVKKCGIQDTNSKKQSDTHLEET
T2 sequence (Q9NZQ7 19-290): as above

Cc1c(COc2cc(OCc3cncc(C#N)c3)c(CNC[C@@H](O)CC(N)=O)cc2Cl)cccc1-c1cccc(COc2cc(OCc3cncc(C#N)c3)c(CNC[C@@H](O)CC(N)=O)cc2Cl)c1C [Example 165, (3S,3′S)-4,4′-((((((2,2′-dimethyl-[1,1′-biphenyl]-3,3′-diyl)bis(methylene))bis(oxy))bis(5-chloro-2-((5-cyanopyridin-3-yl)methoxy)-4,1-phenylene))bis(methylene))bis(azanediyl))bis(3-hydroxybutanamide)]
IC50 [1]: 5.8 nM
EC50 [2]: 156 nM
EC50 [3]: 352 nM

Cc1c(COc2nc(OCc3cncc(S(C)(=O)=O)c3)c(CNC[C@@H](O)CC(=O)O)cc2Br)cccc1-c1cccc(COc2nc(OCc3cncc(S(C)(=O)=O)c3)c(CNC[C@@H](O)CC(=O)O)cc2Br)c1C [Example 42, (3S,3′S)-4,4′-((((((2,2′-dimethyl-[1,1′-biphenyl]-3,3′-diyl)bis(methylene))bis(oxy))bis(5-bromo-2-((5-(methylsulfonyl)pyridin-3-yl)methoxy)pyridine-6,3 diyl))bis(methylene))bis(azanediyl))bis(3-hydroxybutanoic acid)]
IC50 [1]: 0.3 nM
EC50 [2]: 149 nM
EC50 [3]: 123 nM

CNC(=O)COc1nc(OCc2cccc(-c3cccc(COc4nc(OCC(=O)NC)c(CNC[C@@H](O)CC(=O)O)cc4Br)c3C)c2C)c(Br)cc1CNC[C@@H](O)CC(=O)O [Example 147, (3S,3′S)-4,4′-((((((2,2′-dimethyl-[1,1′-biphenyl]-3,3′-diyl)bis(methylene))bis(oxy))bis(5-bromo-2-(2-(methylamino)-2-oxoethoxy)pyridine-6,3-diyl))bis(methylene))bis(azanediyl))bis(3-hydroxybutanoic acid)]
IC50 [1]: 0.3 nM
EC50 [2]: 117 nM
EC50 [3]: 1200 nM

Cc1c(COc2nc(OCc3cncc(C#N)c3)c(CNC[C@H](O)CC(=O)O)cc2Cl)cccc1-c1cccc(COc2nc(OCc3cncc(C#N)c3)c(CNC[C@H](O)CC(=O)O)cc2Cl)c1C [Example 32, (3R,3′R)-4,4′-((((((2,2′-dimethyl-[1,1′-biphenyl]-3,3′-diyl)bis(methylene))bis(oxy))bis(5-chloro-2-((5-cyanopyridin-3-yl)methoxy)pyridine-6,3-diyl))bis(methylene))bis(azanediyl))bis(3-hydroxybutanoic acid)]
IC50 [1]: 0.3 nM
EC50 [2]: 42.1 nM
EC50 [3]: 127 nM

Cc1c(COc2cc(OCc3cncc(C#N)c3)c(CNC[C@@H](O)CC(=O)O)cc2Cl)cccc1-c1cccc2c1CCN2C(=O)c1ccc(CNC[C@@H](O)CC(=O)O)c(OCc2cncc(C#N)c2)c1 [Example 206, (S)-4-((4-(4-(3-((4-((((S)-3-Carboxy-2-hydroxypropyl)amino)methyl)-2-chloro-5-((5-cyanopyridin-3-yl)methoxy)phenoxy)methyl)-2-methylphenyl)indoline-1-carbonyl)-2-((5-cyanopyridin-3-yl)methoxy)benzyl)amino)-3-hydroxybutanoic acid]
IC50 [1]: 0.2 nM
EC50 [2]: 161 nM
EC50 [3]: 672 nM

COc1nc(OCc2cccc(-c3cccc(COc4nc(OC)c(CNC[C@H](O)CC(=O)O)cc4Br)c3C)c2C)c(Br)cc1CNC[C@H](O)CC(=O)O [Example 114, (3R,3′R)-4,4′-((((((2,2′-dimethyl-[1,1′-biphenyl]-3,3′-diyl)bis(methylene))bis(oxy))bis(5-bromo-2-methoxypyridine-6,3-diyl))bis(methylene))bis(azanediyl))bis(3-hydroxybutanoic acid)]
IC50 [1]: 0.5 nM
EC50 [2]: 140 nM
EC50 [3]: 186 nM

Cc1c(COc2nc(OCC(N)=O)c(CNC[C@@H](O)CC(=O)O)cc2Br)cccc1-c1cccc(COc2nc(OCC(N)=O)c(CNC[C@@H](O)CC(=O)O)cc2Br)c1C [Example 155, (3S,3′S)-4,4′-((((((2,2′-dimethyl-[1,1′-biphenyl]-3,3′-diyl)bis(methylene))bis(oxy))bis(2-(2-amino-2-oxoethoxy)-5-bromopyridine-6,3-diyl))bis(methylene))bis(azanediyl))bis(3-hydroxybutanoic acid)]
IC50 [1]: 0.2 nM
EC50 [2]: 211 nM
EC50 [3]: 6490 nM

Cc1c(COc2cc(OCc3cncc(C#N)c3)c(CNCCO)cc2Cl)cccc1-c1cccc(COc2cc(OCc3cncc(C#N)c3)c(CNCCO)cc2Cl)c1 [Example 20, 5,5′-((((((2-methyl-[1,1′-biphenyl]-3,3′-diyl)bis(methylene))bis(oxy))bis(4-chloro-6-(((2-hydroxyethyl)amino)methyl)-3,1-phenylene))bis(oxy))bis(methylene))dinicotinonitrile]
IC50 [1]: 12.6 nM
EC50 [2]: 752 nM
EC50 [3]: 1200 nM

COc1nc(OCc2cccc(-c3cccc(COc4cc(OCc5cncc(C#N)c5)c(CNC[C@@H](O)CC(=O)O)cc4Cl)c3C)c2C)ccc1CNC[C@@H](O)CC(=O)O [Example 203, (S)-4-(((6-((3′-((4-((((S)-3-Carboxy-2-hydroxypropyl)amino)methyl)-2-chloro-5-((5-cyanopyridin-3-yl)methoxy)phenoxy)methyl)-2,2′-dimethyl-[1,1′-biphenyl]-3-yl)methoxy)-2-methoxypyridin-3-yl)methyl)amino)-3-hydroxybutanoic acid]
IC50 [1]: 1 nM
EC50 [2]: 317 nM
EC50 [3]: 696 nM

COc1cc(OCc2cccc(-c3cccc(COc4cc(OCc5cncc(C#N)c5)c(CNC[C@H](O)C(=O)O)cc4Cl)c3C)c2C)c(Cl)cc1CNC[C@H](O)C(=O)O [Example 216, (S)-3-((4-((3′-((4-((((S)-2-carboxy-2-hydroxyethyl)amino)methyl)-2-chloro-5-((5-cyanopyridin-3-yl)methoxy)phenoxy)methyl)-2,2′-dimethyl-[1,1′-biphenyl]-3-yl)methoxy)-5-chloro-2-methoxybenzyl)amino)-2-hydroxypropanoic acid]
EC50 [2]: 206 nM
EC50 [3]: 514 nM

COc1nc(OCc2cccc(-c3cccc(COc4nc(OC)c(CNC[C@H](O)CC(=O)O)cc4Cl)c3C)c2C)c(Cl)cc1CNC[C@H](O)CC(=O)O [Example 49, (3R,3′R)-4,4′-((((((2,2′-dimethyl-[1,1′-biphenyl]-3,3′-diyl)bis(methylene))bis(oxy))bis(5-chloro-2-methoxypyridine-6,3-diyl))bis(methylene))bis(azanediyl))bis(3-hydroxybutanoic acid)]
EC50 [2]: 124 nM
EC50 [3]: 274 nM

COc1nc(OCc2cccc(-c3cccc(COc4nc(OC)c(CN5C[C@@H](O)C[C@H]5C(=O)O)cc4Cl)c3C)c2C)c(Cl)cc1CN1C[C@@H](O)C[C@H]1C(=O)O [Example 48, (2S,2′S,4S,4'S)-1,1′-(((((2,2′-dimethyl-[1,1′-biphenyl]-3,3′-diyl)bis(methylene))bis(oxy))bis(5-chloro-2-methoxypyridine-6,3-diyl))bis(methylene))bis(4-hydroxypyrrolidine-2-carboxylic acid)]
EC50 [2]: 298 nM
EC50 [3]: 412 nM

COc1nc(OCc2cccc(-c3cccc(COc4nc(OC)c(CN5CCC[C@@H]5C(=O)O)cc4Cl)c3C)c2C)c(Cl)cc1CN1CCC[C@@H]1C(=O)O [Example 234, (2′R)-(((((2,2′-dimethyl-[1,1′-biphenyl]-3,3′-diyl)bis(methylene))bis(oxy))bis(5-chloro-2-methoxypyridine-6,3-diyl))bis(methylene))di-D-proline]
EC50 [2]: 132 nM
EC50 [3]: 444 nM

COc1nc(OCc2cccc(-c3cccc(COc4nc(OC)c(CNCCCC(N)=O)cc4Br)c3C)c2C)c(Br)cc1CNCCCC(N)=O [Example 116, 4,4′-((((((2,2′-dimethyl-[1,1′-biphenyl]-3,3′-diyl)bis(methylene))bis(oxy))bis(5-bromo-2-methoxypyridine-6,3-diyl))bis(methylene))bis(azanediyl))dibutanamide]
EC50 [2]: 134 nM
EC50 [3]: 702 nM

COc1nc(OCc2cccc(-c3cccc(COc4nc(OC)c(CN[C@H](C)[C@@H](O)CC(=O)O)cc4Cl)c3C)c2C)c(Cl)cc1CN[C@H](C)[C@@H](O)CC(=O)O [Example 182, (3S,3′S,4R,4′R)-4,4′-((((((2,2′-dimethyl-[1,1′-biphenyl]-3,3′-diyl)bis(methylene))bis(oxy))bis(5-chloro-2-methoxypyridine-6,3-diyl))bis(methylene))bis(azanediyl))bis(3-hydroxypentanoic acid)]
EC50 [2]: 91.4 nM
EC50 [3]: 439 nM
